# From patent publication US20260297095A1, “NOVEL PYRROLOTRIAZINE DERIVATIVE AND USE THEREOF” (Pelemed Co., Ltd., priority 2024, published 2026)
# How the values were obtained:
# YES1 kinase = YES1 kinase (Homo sapiens, UniProt P07947); test: YES1 kinase inhibition, ADP Glo assay (Promega); format: biochemical; settings: for inhibition at 0.01 µM: compound 10 nM, read-out: YES1 enzyme, % inhibition, 10 nM; for inhibition at 0.1 µM: compound 100 nM, read-out: YES1 enzyme, % inhibition, 100 nM
# Protocol: To evaluate the inhibitory activity against YES1 kinase of the compound according to the present invention, ADP Glo assay (Promega) was used, and the following method was performed with reference to the Promega kinase enzyme system protocol. To proceed with the experiment, buffers A-F and compound dilution plates were required.
# To prepare A.4X reaction buffer, 800 μl of 5X reaction buffer and 200 μl of distilled water were used. To prepare B.4X kinase buffer, 996.6 μl of A.4X reaction buffer, 2 μl of 0.1M DTT, and 3.2 μl of 2.5M MnCl2 were added and mixed. To prepare C.1X kinase buffer (containing 5% DMSO) used for compound dilution, 250 μl of B.4X kinase buffer, 700 μl of distilled water, and 50 μl of DMSO were added, so that the final DMSO concentration became 5%. Then, 10 mM compounds were diluted 100-fold to prepare 100 μM solutions, and then D.5X inhibitor solution was prepared so that the compound concentration became 5 uM. Using a 96-well plate, 5 μM compounds were 3-fold diluted using C.1X kinase buffer (containing 5% DMSO) to prepare compound plates with concentrations ranging from 0.25 μM to 5 μM. The resulting plates were stored at room temperature. To prepare E. 2.5X ATP/substrate mixture, 50 μl of B.4X kinase buffer, 50 μl of […], and 100 μl of substrate were mixed. To prepare F YES1 kinase enzyme solution, 35 μl of B.4X kinase buffer, 0.4 μl of YES1 enzyme, and 104.6 μl of distilled water were used. Once the diluted compound plates, ATP/substrate mixture, and YES1 kinase solution were all prepared, 3 μL each was transferred from the diluted compound plate to a luciferase 96-well white plate (Since the total volume of the ATP/substrate and YES1 kinase solution that reacts with the compound is 15 μL, the compounds were diluted 5-fold, making the final compound concentration 0.05 μM-1 μM). Then, 6 μL of F. YES1 Kinase Enzyme Solution was transferred to each well, pipetted 10 times to mix, and incubated at room temperature in a shaker for 10 minutes. Next, 6 μL of E. 2.5X ATP/Substrate Mixture was transferred to each well, pipetted 10 times to mix, and centrifuged at 12,000 rpm for 5 minutes. The plate was then incubated in a shaker at room temperature for 40 minutes. After that, 15 μL of ADP-Glo Reagent, dissolved at room temperature, was added to each well, pipetted 10 times, and incubated in a shaker at room temperature for 40 minutes. Finally, 30 μL of Kinase Detection Reagent, dissolved at room temperature, was added, pipetted 10 times, incubated in a shaker at room temperature for 30 minutes. Luminescence was measured using a luminescence plate reader. Then, the background value was subtracted from all measured values, and the YES1 kinase activity at compound concentrations of 1 nM, 10 nM, and 100 nM was calculated. The measured values were calculated as percentages using the average value of the negative control. Graphs were drawn using GraphPad Prism, and the enzyme activity was calculated as a percentage of YES1 kinase inhibition at compound concentrations of 1 nM, 10 nM, and 100 nM. IC50 values were obtained using Microsoft Excel.
# [1] = test system: KYSE-70 esophageal cancer cell line; test: Cell growth inhibition of KYSE-70 (Sulforhodamine B); format: cell-based; settings: Homo sapiens; KYSE-70, 72 hours; read-out: KYSE70 GI50
# Protocol: The cell line according to the present invention was selected as KYSE-70, an esophageal cancer cell line in which YES1 is amplified. The evaluation of cell growth inhibition was performed as follows.
# KYSE-70 was cultured in RPMI-1640 (Capricorn) supplemented with 10% FBS (Cellgro). The cells were seeded 24 hours prior to compound treatment, into three 96-well F-bottom clear plates (Greiner), with 7,500 cells per well in 180 μL of medium. The 10 mM compound was diluted 100-fold in medium to prepare a 100 μM compound, which was then placed into a 96-well plate and further 3-fold diluted in medium to prepare a compound plate with concentrations ranging from 0.046 μM to 100 μM. 20 μL of each compound from the drug plate was added to the cell-seeded plates to achieve final concentrations of 0.0046 μM to 10 μM. At the same time, 50 μL of 33% trichloroacetic acid was injected into one plate and the plate was fixed by incubating at 4° C. This was referred to as the Do plate. Viable cells were measured 72 hours after compound treatment by injecting 50 μL of 33% trichloroacetic acid and incubating at 4° C. for more than 1 hour to fix the cells. This was referred to as the D3 plate. After the Do plate and D3 plates were washed 5 times with sterile water, 100 μL of 0.04% Sulforhodamine B solution in 1% acetic acid was added and reacted for 1 hour to stain the cells. After staining, the plates were washed 4 times with 1% acetic acid solution and completely dried. Then, the Sulforhodamine B bound to cellular proteins was completely dissolved with 10 mM Tris base solution (pH 10.5). The absorbance was measured at a wavelength of 510 nm using a microplate reader (TECAN, sunrise microplate reader). The analysis was performed using GraphPad Prism. The average absorbance of the Do plate was set to 0%, and the average absorbance of the negative control of the D3 plate was set to 100%, from which a graph was drawn and the GI50 values were calculated. Each test was performed twice.
# YES1 kinase, sequence (P07947 whole entry): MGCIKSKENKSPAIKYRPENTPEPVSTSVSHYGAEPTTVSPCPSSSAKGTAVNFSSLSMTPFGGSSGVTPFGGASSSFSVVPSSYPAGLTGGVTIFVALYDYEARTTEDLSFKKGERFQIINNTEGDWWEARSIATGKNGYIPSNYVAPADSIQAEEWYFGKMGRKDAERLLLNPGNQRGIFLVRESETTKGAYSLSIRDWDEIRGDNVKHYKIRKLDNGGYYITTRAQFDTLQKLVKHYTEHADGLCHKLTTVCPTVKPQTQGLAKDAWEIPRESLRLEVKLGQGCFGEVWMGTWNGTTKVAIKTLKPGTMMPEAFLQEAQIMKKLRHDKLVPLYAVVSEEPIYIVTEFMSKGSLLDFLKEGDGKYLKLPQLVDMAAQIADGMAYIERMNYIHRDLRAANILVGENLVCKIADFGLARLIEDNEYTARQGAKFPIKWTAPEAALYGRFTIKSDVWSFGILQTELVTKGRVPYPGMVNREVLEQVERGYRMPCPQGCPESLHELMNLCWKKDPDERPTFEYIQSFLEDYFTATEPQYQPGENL
SMILES,inhibition at 0.01 µM (YES1 kinase) [%],inhibition at 0.1 µM (YES1 kinase) [%],GI50 [1] [nM]
"COc1cc(-c2cc(N3CCC4(CCCN4C)CC3)n3ncnc(N)c23)ccc1NC(=O)OC(C)(C)C [Example 24, tert-butyl (4-(4-amino-7-(1-methyl-1,8-diazaspiro[4.5]decan-8-yl)pyrrolo[2,1-f][1,2,4]triazin-5-yl)-2-methoxyphenyl)carbamate]",50,82,100 to 1000
"COc1cc(-c2cc(-c3ccc4c(c3)OCCN4C)n3ncnc(N)c23)ccc1NC(=O)OC(C)(C)C [Example 7, tert-butyl (4-(4-amino-7-(4-methyl-3,4-dihydro-2H-benzo[b][1,4]oxazin-7-yl)pyrrolo[2,1-f][1,2,4]triazin-5-yl)-2-methoxyphenyl)carbamate]",28,49,1000 to 10000
"Nc1ncnn2c(N3CCC(N)CC3)cc(-c3ccc(Oc4ccccc4)cc3)c12 [Example 135, 7-(4-aminopiperidin-1-yl)-5-(4-phenoxyphenyl)pyrrolo[2,1-f][1,2,4]triazin-4-amine]",62,87,≤ 100
"COc1cc(-c2cc(N3CC4CC3CC4N)n3ncnc(N)c23)ccc1NC(=O)OC(C)(C)C (stereo not drawn) [Example 51, tert-butyl (4-(4-amino-7-(5-amino-2-azabicyclo[2.2.1]heptan-2-yl)pyrrolo[2,1-f][1,2,4]triazin-5-yl)-2-methoxyphenyl)carbamate]",70,90,100 to 1000
"CC1(OC(=O)Nc2ccc(-c3cc(N4CCC(N)CC4)n4ncnc(N)c34)c3c2OCO3)CC1 [Example 70, 1-methylcyclopropyl (7-(4-amino-7-(4-aminopiperidin-1-yl)pyrrolo[2,1-f][1,2,4]triazin-5-yl)benzo[d][1,3]dioxol-4-yl)carbamate]",,,100 to 1000
"CNC1CCN(CCc2c(C)c(-c3ccc(NC(=O)OC(C)(C)CF)c(OC)c3)c3c(N)ncnn23)CC1 [Example 64, 1-fluoro-2-methylpropan-2-yl (4-(4-amino-6-methyl-7-(2-(4-(methylamino)piperidin-1-yl)ethyl)pyrrolo[2,1-f][1,2,4]triazin-5-yl)-2-methoxyphenyl)carbamate]",,,≤ 100
"COc1cc(-c2c(C(F)(F)F)c(N3CCC(N)CC3)n3ncnc(N)c23)ccc1NC(=O)OC(C)(C)C [Example 125, tert-butyl (4-(4-amino-7-(4-aminopiperidin-1-yl)-6-(trifluoromethyl)pyrrolo[2,1-f][1,2,4]triazin-5-yl)-2-methoxyphenyl)carbamate]",,,100 to 1000
"CNCCC1CCN(c2c(C)c(-c3ccc(NC(=O)OC(C)(C)C)c(OC)c3)c3c(N)ncnn23)CC1 [Example 77, tert-butyl (4-(4-amino-6-methyl-7-(4-(2-(methylamino)ethyl)piperidin-1-yl)pyrrolo[2,1-f][1,2,4]triazin-5-yl)-2-methoxyphenyl)carbamate]",,,100 to 1000
"COc1cc(-c2c(C)c(N3CCC(N(C)C)CC3)n3ncnc(N)c23)ccc1NC(=O)OC(C)(C)C [Example 76, tert-butyl (4-(4-amino-7-(4-(dimethylamino)piperidin-1-yl)-6-methylpyrrolo[2,1-f][1,2,4]triazin-5-yl)-2-methoxyphenyl)carbamate]",,,≤ 100
"CC(C)(C)OC(=O)Nc1ccc(-c2cc(N3CCC(N)CC3)n3ncnc(N)c23)c2c1OCO2 [Example 73, tert-butyl (7-(4-amino-7-(4-aminopiperidin-1-yl)pyrrolo[2,1-f][1,2,4]triazin-5-yl)benzo[d][1,3]dioxol-4-yl)carbamate]",,,≤ 100
"COc1cc(-c2cc(N3CCC(N)CC3)n3ncnc(N)c23)ccc1NC(=O)OC(C)(C)C(F)(F)F [Example 72, 1,1,1-trifluoro-2-methylpropan-2-yl (4-(4-amino-7-(4-aminopiperidin-1-yl)pyrrolo[2,1-f][1,2,4]triazin-5-yl)-2-methoxyphenyl)carbamate]",,,100 to 1000

# Next, values leading:
inhibition at 0.01 µM (YES1 kinase) [%],inhibition at 0.1 µM (YES1 kinase) [%],GI50 [1] [nM],SMILES
,,≤ 100,"CNCCC1CCN(c2cc(-c3ccc(NC(=O)OC(C)(C)CF)c(OC)c3)c3c(N)ncnn23)CC1 [Example 66, 1-fluoro-2-methylpropan-2-yl (4-(4-amino-7-(4-(2-(methylamino)ethyl)piperidin-1-yl)pyrrolo[2,1-f][1,2,4]triazin-5-yl)-2-methoxyphenyl)carbamate]"
,,≤ 100,"CNC1CCN(CCc2c(F)c(-c3ccc(NC(=O)OC(C)(C)C)c(OC)c3)c3c(N)ncnn23)CC1 [Example 130, tert-butyl (4-(4-amino-6-fluoro-7-(2-(4-(methylamino)piperidin-1-yl)ethyl)pyrrolo[2,1-f][1,2,4]triazin-5-yl)-2-methoxyphenyl)carbamate]"
,,≤ 100,"CCC1(N)CCN(c2cc(-c3ccc(NC(=O)OC(C)(C)C)c(OC)c3)c3c(N)ncnn23)CC1 [Example 82, tert-butyl (4-(4-amino-7-(4-amino-4-ethylpiperidin-1-yl)pyrrolo[2,1-f][1,2,4]triazin-5-yl)-2-methoxyphenyl)carbamate]"
,,> 10000,"COc1cc(-c2cc(N3CCC(C)(NC(C)=O)CC3)n3ncnc(N)c23)ccc1NC(=O)OC(C)(C)C [Example 96, tert-butyl (4-(4-amino-7-(4-acetamido-4-methylpiperidin-1-yl)pyrrolo[2,1-f][1,2,4]triazin-5-yl)-2-methoxyphenyl)carbamate]"
,,100 to 1000,"COc1cc(-c2cc(N3CCC(N)CC3)n3ccnc(N)c23)ccc1NC(=O)OC(C)(C)C [Example 132, tert-butyl (4-(1-amino-6-(4-aminopiperidin-1-yl)pyrrolo[1,2-a]pyrazin-8-yl)-2-methoxyphenyl)carbamate]"
,,100 to 1000,"CNC1CCN(c2cc(-c3ccc(NC(=O)OC(C)(C)C)c(OC)c3)c3c(N)nccn23)CC1 [Example 133, tert-butyl (4-(1-amino-6-(4-(methylamino)piperidin-1-yl)pyrrolo[1,2-a]pyrazin-8-yl)-2-methoxyphenyl)carbamate]"
,,> 10000,"COc1cc(-c2cc(N3CCC(C(N)=O)CC3)n3ncnc(N)c23)ccc1NC(=O)OC(C)(C)C [Example 97, tert-butyl (4-(4-amino-7-(4-carbamoylpiperidin-1-yl)pyrrolo[2,1-f][1,2,4]triazin-5-yl)-2-methoxyphenyl)carbamate]"
,,≤ 100,"CNC1CCN(c2c(C)c(-c3ccc(NC(=O)OC(C)(C)CF)c(OC)c3)c3c(N)ncnn23)CC1 [Example 61, 1-fluoro-2-methylpropan-2-yl (4-(4-amino-6-methyl-7-(4-(methylamino)piperidin-1-yl)pyrrolo[2,1-f][1,2,4]triazin-5-yl)-2-methoxyphenyl)carbamate]"
